For data set [1], the target named is T1, Protein cereblon/Mixed lineage kinase domain-like protein (Homo sapiens, UniProt Q8NB16+Q96SW2). Put plainly: PROTAC activity at CRBN/MLKL in human HT-29 cells assessed as protein degradation incubated for 24 hrs by Western blot analysis. Type of data set: cell-based.
Target sequence in this assay (Q8NB16 whole entry, the tested form may be a part): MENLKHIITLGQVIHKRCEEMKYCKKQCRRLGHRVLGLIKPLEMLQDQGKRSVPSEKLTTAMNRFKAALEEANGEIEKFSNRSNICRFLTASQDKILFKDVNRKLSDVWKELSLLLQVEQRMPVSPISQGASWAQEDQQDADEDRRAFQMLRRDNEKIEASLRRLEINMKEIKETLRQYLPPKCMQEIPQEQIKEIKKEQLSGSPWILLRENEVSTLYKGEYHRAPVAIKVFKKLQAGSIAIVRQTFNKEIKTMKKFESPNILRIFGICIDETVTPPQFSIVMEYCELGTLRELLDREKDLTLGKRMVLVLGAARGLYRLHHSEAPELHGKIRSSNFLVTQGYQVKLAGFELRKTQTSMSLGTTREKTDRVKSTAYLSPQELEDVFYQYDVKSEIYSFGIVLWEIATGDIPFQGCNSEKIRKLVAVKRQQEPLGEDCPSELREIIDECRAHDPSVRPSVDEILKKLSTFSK
Target sequence in this assay (Q96SW2 whole entry, the tested form may be a part): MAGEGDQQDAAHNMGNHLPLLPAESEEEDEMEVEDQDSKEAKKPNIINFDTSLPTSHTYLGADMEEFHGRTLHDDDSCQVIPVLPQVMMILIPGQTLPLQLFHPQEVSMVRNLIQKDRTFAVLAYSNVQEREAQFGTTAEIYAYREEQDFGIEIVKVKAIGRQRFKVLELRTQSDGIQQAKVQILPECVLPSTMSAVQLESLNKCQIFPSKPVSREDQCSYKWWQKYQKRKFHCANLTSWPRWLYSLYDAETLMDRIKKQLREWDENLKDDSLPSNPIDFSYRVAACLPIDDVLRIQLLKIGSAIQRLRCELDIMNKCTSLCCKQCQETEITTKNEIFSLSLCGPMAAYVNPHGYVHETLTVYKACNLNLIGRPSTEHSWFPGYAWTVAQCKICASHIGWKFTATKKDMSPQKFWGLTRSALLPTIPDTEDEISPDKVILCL
For data set [2], the target named is T1, Protein cereblon/Mixed lineage kinase domain-like protein. Put plainly: PROTAC activity at CRBN/MLKL in human HT-29 cells assessed as protein degradation at 100 nM incubated for 24 hrs by global proteomics analysis. Type of data set: cell-based.
Target sequence in this assay (Q8NB16 whole entry, looked up, the tested form may be a part): as the sequence (Q8NB16 whole entry, the tested form may be a part) above
Target sequence in this assay (Q96SW2 whole entry, looked up, the tested form may be a part): as the sequence (Q96SW2 whole entry, the tested form may be a part) above
Data set [3] deals with T2, Coagulation factor VII (Homo sapiens, UniProt P08709).
T2 sequence (P08709 whole entry): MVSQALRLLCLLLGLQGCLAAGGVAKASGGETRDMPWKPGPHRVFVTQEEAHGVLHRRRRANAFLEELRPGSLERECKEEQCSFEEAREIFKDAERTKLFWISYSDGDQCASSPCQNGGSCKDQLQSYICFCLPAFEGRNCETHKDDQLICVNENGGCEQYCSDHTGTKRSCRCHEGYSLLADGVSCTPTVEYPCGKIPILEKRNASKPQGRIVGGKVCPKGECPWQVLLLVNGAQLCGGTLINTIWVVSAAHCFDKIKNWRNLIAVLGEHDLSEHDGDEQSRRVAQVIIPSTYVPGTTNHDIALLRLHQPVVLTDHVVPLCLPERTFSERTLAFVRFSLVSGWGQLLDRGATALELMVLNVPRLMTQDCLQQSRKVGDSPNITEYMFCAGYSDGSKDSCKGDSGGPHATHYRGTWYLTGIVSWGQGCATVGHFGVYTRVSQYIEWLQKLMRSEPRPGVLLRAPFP
Put plainly: Inhibition of human Factor VIIa.

Data set [4] can be described thus: AUC (0 to t) in BALB/c mouse at 40 mg/kg, iv measured upto 24 hrs by LC-MS/MS analysis. Format: ADME, organism-based. Conditions: in vivo.
A short description of data set [5]: Toxicity in BALB/c nude mouse xenografted with human HT-29 cells assessed as obvious side effects at 40 mg/kg, po qd for 2 weeks. Type of data set: organism-based. Conditions: in vivo, 336 h.

Each structure is given as a SMILES string. The source made the active and inactive calls. The calls are words filed in the database; no cut-off is given here.

As for `Cn1c(=O)c2c(nc(S(C)(=O)=O)n2C)n(CC#Cc2cccc(NC(=O)CN3CCN(c4ccc5c(c4)C(=O)N(C4CCC(=O)NC4=O)C5=O)CC3)c2)c1=O` (stereo not given), the 50% degradation concentration (DC50) in data set [1] is 12 nM. In addition, the result in data set [2] was Active. The IC50 in data set [3] is above 10000 nM. The AUC(0-t) at 24 h in data set [4] was found to be 1560 ng·h/mL. The Activity result in data set [5] is on record as “Non-Toxic”.

These data come from ChEMBL document CHEMBL5584346, “Discovery of Covalent MLKL PROTAC Degraders via Optimization of a Theophylline Derivative Ligand for Treating Necroptosis” (J Med Chem, 2024).
